Reference: patent US11311609B2, “Regulating chimeric antigen receptors” (DANA-FARBER CANCER INSTITUTE, INC., priority 2017, dated 2022)

Columns and labels:
Type in all cases: cell-based
FKBP12WT = molecular target: T1, FKBP12WT (Homo sapiens, UniProt P62942); assay: Immunoblot of wild type FKBP12 degradation in 293FT cells (CRBN-WT or CRBN-/-); conditions: 4 hours
T1 construct: HA; expressed in transfected cells; host or cells: 293FT cells (CRBN-WT or CRBN-/-)
Method: FIG. 6 is an immunoblot of cells treated with bi-functional molecules described in the present invention.
The dTAG is predicated on the selectivity of FKBP* specific ligands over endogenous, wild type FKBP. […] An immunoblot of cells treated with bi-functional molecules described in the present invention was performed. 293FT cells (CRBN-WT or CRBN−/−) expressing either HA-tagged FKBP12WT or FKBP* were treated with indicated concentrations of dFKBP7 for 4 hours.
Isogenic 293FT cells (CRBN-WT or CRBN−/−) were engineered to express either FKBP12WT or FKBP*. Cells were treated with 100 nM of either dFKBP7 or dFKBP13 for 4 hours before lysates were prepared for western immunoblot analysis.

CD19-CAR-dTAG = molecular target: T2, CD19-CAR-dTAG (Homo sapiens, UniProt P62942+Q96SW2, F37V/H95N/M50V/V99I); assay: Immunoblot of CD19-CAR-dTAG degradation in Jurkat T-cells
T2 construct: HA; expressed in transfected cells; host or cells: Jurkat T-cells, lentiviral transduction, blasticidin selection
T2 sequence (P62942 with tags, fused parts or gaps F37V/M50V/H95N/V99I limits assumed): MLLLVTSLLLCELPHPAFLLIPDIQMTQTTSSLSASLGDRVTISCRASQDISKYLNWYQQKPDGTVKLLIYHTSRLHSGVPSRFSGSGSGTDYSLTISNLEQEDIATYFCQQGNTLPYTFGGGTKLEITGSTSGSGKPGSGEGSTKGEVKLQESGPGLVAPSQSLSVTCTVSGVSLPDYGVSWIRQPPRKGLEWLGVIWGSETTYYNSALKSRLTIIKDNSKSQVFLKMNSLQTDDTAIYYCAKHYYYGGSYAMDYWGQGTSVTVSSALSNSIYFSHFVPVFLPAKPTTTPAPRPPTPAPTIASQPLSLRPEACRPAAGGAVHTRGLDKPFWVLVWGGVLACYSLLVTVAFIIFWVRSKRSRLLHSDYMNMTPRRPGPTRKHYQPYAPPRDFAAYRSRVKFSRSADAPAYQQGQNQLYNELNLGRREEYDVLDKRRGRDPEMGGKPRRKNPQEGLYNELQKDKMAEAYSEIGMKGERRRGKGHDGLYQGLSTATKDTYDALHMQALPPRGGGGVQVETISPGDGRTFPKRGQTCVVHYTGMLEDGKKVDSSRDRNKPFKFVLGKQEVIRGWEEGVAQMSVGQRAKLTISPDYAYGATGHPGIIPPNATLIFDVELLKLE
T2 sequence (Q96SW2 whole entry): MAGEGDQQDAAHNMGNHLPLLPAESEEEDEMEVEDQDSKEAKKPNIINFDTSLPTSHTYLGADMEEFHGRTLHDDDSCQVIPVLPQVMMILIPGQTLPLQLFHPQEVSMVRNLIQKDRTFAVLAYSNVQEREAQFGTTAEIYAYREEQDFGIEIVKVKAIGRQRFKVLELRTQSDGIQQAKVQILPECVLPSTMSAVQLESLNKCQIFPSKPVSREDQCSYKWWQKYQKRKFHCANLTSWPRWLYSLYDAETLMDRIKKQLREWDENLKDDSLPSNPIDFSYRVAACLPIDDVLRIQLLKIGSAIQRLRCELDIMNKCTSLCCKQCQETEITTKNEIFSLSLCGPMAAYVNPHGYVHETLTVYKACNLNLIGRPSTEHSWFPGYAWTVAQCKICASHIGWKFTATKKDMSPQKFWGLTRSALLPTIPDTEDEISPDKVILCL
T2 sequence (Q16531 whole entry partner): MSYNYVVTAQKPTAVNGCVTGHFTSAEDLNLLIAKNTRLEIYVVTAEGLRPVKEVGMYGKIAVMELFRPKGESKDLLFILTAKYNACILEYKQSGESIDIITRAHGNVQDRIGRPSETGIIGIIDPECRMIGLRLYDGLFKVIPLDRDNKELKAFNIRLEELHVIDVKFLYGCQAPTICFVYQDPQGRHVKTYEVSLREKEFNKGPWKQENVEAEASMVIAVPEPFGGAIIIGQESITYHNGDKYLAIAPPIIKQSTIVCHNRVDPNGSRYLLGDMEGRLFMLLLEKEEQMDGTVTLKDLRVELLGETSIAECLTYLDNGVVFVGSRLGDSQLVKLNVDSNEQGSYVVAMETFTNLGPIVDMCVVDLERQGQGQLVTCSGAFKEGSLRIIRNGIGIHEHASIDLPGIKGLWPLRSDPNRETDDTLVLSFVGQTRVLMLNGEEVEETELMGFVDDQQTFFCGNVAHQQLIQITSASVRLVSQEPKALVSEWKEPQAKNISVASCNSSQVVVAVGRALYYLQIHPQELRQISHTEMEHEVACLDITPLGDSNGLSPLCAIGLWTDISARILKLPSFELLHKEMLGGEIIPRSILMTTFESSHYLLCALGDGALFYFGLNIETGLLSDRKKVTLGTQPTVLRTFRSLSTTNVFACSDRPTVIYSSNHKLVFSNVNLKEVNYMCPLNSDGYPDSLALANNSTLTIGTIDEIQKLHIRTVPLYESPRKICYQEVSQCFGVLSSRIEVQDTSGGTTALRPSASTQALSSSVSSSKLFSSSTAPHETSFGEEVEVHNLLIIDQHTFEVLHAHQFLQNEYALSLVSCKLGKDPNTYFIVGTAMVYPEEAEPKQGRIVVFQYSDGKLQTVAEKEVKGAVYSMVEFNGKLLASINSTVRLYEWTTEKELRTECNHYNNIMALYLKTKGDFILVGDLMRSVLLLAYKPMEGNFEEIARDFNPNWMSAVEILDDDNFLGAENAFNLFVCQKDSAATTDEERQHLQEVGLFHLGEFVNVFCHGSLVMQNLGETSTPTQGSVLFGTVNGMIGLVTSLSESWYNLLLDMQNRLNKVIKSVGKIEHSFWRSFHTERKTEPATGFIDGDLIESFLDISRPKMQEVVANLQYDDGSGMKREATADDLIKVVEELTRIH
Method: FIG. 14A and FIG. 14B are immunoblots of cells treated with heterobifunctional compounds described in the present invention.
FIG. 15A and FIG. 15B are immunoblots of cells treated with bi-functional molecules described in the present invention.
FIG. 16 is an immunoblot of cells treated with heterobifunctional compounds described in the present invention.
At 4 and 12 hours, the dFKBP7 was washed out of the Jurkat cells. At each indicated timepoint, Jurkat cells were harvest to monitor CD19-CAR-dTAG expression levels via immunoblot analysis. FIG. 17B is the resulting immunoblot from the experimental design in FIG. 17A.
Jurkat T-cells were transduced with lentivirus expressing CD19-CAR-dTAG. Cells were selected with blasticidin and expanded.
Jurkat T-cells were engineered to express CD19-CAR-dTAG. Cells were treated with the indicated dose of dFKBP7 or dFKBP13 for 4 hours before lysates were prepared for western immunoblot analysis.
Jurkat T-cells were engineered to express CD19-CAR-dTAG. Cells were treated with 250 nM dFKBP7 or dFKBP13 for the indicated time before lysates were prepared for immunoblot analysis.
At 4 and 12 hours, the dFKBP7 was washed out of the Jurkat cells. At each indicated timepoint, Jurkat cells were harvest to monitor CD19-CAR-dTAG expression levels via immunoblot analysis.

[1] = test system: proteins fused to mutant FKBP* with an HA tag; assay: Immunoblot of dTAG fusion proteins in MV4;11 leukemia cells; conditions: indicated concentrations, 16 hours
Method: FIG. 18A and FIG. 18B are immunoblots of cells treated with heterobifunctional compounds described in the present invention. Immunoblots of MV4; 11 leukemia cells expressing indicated proteins fused to mutant FKBP* with an HA tag. Cells were treated for 16 hours with indicated concentrations of FKBP* selective heterobifunctional compounds, dFKBP7 or dFKBP13 and abundance of fusion proteins measured by western immunoblot analysis. Additional experimental details are given in Example 15.
To test the general utility of the dTAG technology across several protein types, the indicated proteins fused to the dTAG in MV4; 11 leukemia cells were expressed. Upon treatment with the indicated dFKBP bifunctional molecules (dFKBP7 and dFKBP13), targeted protein degradation was observed as measured by western blot.

IL-2 = IL-2 ELISA of co-culture supernatants of SMART-CAR expressing Jurkat T-cells; conditions: CD19 positive Raji cells; 1:3 ratio; 4 hours; 250 nM dFKBP7
Method: FIG. 35 is a histogram bar plot quantifying IL-2 levels produced from SMART-CAR expressing Jurkat T-cells after co-incubation with antigen expressing K562 cells in a 1:3 ratio (T cell to K562 cell) for 24 hours as described in Example 29. IL-2 levels were quantified by ELISA using co-culture supernatants.
FIG. 36 is a histogram bar plot quantifying IL-2 levels produced from SMART-CAR expressing Jurkat T-cells after co-incubation with CD19 positive Raji cells in a 1:3 ratio (T cells to Raji cells) for 4 hours.
FIG. 35 illustrates the specificity in activation of SMART-CAR expressing T-cells for CD19 expressing target tumor cells. SMART-CAR expressing Jurkat T-cells were co-incubated with antigen expressing K562 cells in a 1:3 ratio (T cell to K562 cell) for 24 hours. IL-2 levels were quantified by ELISA using co-culture supernatants.
FIG. 36 illustrates the chemical control of SMART-CAR expressing T-cell activation using the hetero bifunctional molecule dFKBP7. SMART-CAR expressing Jurkat T-cells were co-incubated with CD19 positive Raji cells in a 1:3 ratio.

T1 sequence (P62942 whole entry): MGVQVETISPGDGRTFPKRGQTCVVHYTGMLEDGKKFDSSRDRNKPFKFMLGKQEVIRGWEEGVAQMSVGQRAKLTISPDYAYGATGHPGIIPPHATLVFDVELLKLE

Which results are given for CC[C@H](C(=O)N1CCCC[C@H]1C(=O)O[C@H](CCc1ccc(OC)c(OC)c1)c1cccc(OCC(=O)NCCCOCCOCCOCCCNC(=O)COc2cccc3c2C(=O)N(C2CCC(=O)NC2=O)C3=O)c1)c1cc(OC)c(OC)c(OC)c1 (some centres unmarked) [dFKBP7]?
Degradation of HA-tagged FKBP12WT (immunoblot) (FKBP12WT; 293FT cells CRBN-WT or CRBN-/-, indicated concentrations): not FKBPWT; Degradation of FKBP12WT or endogenous FKBP12 (immunoblot) (FKBP12WT; isogenic 293FT cells CRBN-WT or CRBN-/-, 100 nM): not FKBP12WT or endogenous FKBP12; Re-expression of CD19-CAR-dTAG protein after washout (CD19-CAR-dTAG; Jurkat T-cells, 250 nM for 4 hours, then washouts): recovered; Degradation of CD19-CAR-dTAG, time dependence (CD19-CAR-dTAG; Jurkat T-cells, 250 nM, indicated time): time-dependent degradation of CD19-CAR-dTAG; Degradation of CD19-CAR-dTAG, dose dependence (CD19-CAR-dTAG; Jurkat T-cells, indicated dose, 4 hours): dose-dependent degradation of CD19-CAR-dTAG; Rheostat chemical control of CD19-CAR-dTAG expression (CD19-CAR-dTAG; Jurkat cells, 250 nM at 0 and 8 hours, washed out at 4 and 12 hours): exquisite chemical control of CD19-CAR-dTAG protein levels allowing for modulation within hours; Degradation of proteins fused to dTAG [1]: degradation was observed with nanomolar concentrations; IL-2 production (IL-2): completely suppressed
